BindingDB's records for doi:10.1021/ml4000595 (Temple University, 2013)

Legend:
[1] = target: T1, Cytochrome P450 11B1, mitochondrial (Homo sapiens, UniProt P15538); test: Inhibition of human CYP11B1 expressed in hamster V79MZ cells using [1,2-3H]11-deoxycorticosterone as substrate preincubated for 60 mins prior to substrate addition measured after 25 mins by HPLC analysis
T1 sequence (P15538 whole entry): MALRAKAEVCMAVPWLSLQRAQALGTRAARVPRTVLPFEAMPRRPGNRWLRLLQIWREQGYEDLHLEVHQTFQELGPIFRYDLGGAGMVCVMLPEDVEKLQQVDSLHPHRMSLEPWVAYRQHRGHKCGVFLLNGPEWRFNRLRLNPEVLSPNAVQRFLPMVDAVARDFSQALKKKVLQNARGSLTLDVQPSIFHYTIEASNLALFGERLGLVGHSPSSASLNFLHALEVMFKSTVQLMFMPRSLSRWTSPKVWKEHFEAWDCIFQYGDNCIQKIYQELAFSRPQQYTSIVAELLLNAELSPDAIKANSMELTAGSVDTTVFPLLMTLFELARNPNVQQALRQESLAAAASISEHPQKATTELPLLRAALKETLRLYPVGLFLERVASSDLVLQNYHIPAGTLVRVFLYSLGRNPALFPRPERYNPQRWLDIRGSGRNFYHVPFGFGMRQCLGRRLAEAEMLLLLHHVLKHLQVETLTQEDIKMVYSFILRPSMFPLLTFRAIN

[2] = target: T2, Cytochrome P450 11B2, mitochondrial (Homo sapiens, UniProt P19099); test: Inhibition of human CYP11B2 expressed in hamster V79MZ cells using [1,2-3H]11-deoxycorticosterone as substrate preincubated for 60 mins prior to substrate addition measured after 50 mins by HPLC analysis
T2 sequence (P19099 whole entry): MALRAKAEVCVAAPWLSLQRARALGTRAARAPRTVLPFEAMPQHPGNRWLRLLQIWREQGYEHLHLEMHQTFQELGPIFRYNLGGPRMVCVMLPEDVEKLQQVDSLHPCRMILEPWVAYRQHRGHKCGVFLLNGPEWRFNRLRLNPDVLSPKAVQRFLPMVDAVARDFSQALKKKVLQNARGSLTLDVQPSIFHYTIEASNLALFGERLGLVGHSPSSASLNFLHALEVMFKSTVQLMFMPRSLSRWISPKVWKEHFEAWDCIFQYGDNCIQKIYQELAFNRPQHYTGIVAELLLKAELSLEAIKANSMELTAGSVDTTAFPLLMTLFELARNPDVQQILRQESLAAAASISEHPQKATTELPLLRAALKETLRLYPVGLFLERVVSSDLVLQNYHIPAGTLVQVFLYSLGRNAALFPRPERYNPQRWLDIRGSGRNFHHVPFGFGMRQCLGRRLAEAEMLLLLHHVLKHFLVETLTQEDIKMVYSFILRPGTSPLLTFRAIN

Row | IC50 [1] [nM] | IC50 [2] [nM] | Compound
1 | 101 | 2110 | Nc1ccccc1-c1ccc(Cn2ccnc2)cn1
2 | 42 | 2080 | c1ccc2c(-c3ccc(Cn4ccnc4)cn3)cccc2c1
3 | 110 | 3410 | Nc1cccc(-c2ccc(Cn3ccnc3)cn2)c1
4 | 40 | 1160 | c1ccc2c(-c3ccc(Cn4ccnc4)cn3)csc2c1

Further lines, the molecule ahead of its results:

Row | Compound | IC50 [1] [nM] | IC50 [2] [nM]
5 | Brc1ncccc1Cn1ccnc1 | 61 | 911
6 | Nc1ccc(-c2ccc(Cn3ccnc3)cn2)cc1 | 106 | 528
7 | c1csc(-c2ncccc2Cn2ccnc2)c1 | 16 | 251
8 | Oc1ccc(-c2ccc(Cn3ccnc3)cn2)cc1F | 17 | 237
